Results on one molecule are retold here after patent US6410485B1, “Saccharin-5-carbonyl derivatives with herbicidal effect” (BASF Aktiengesellschaft, priority 1999, dated 2002).

What all share (type): in vivo
In assay [1] the test system is Echinochloa crus galli (ECHCG). Description: greenhouse test, preemergence treatment, common barnyard grass. The note with it: 100 = no emergence or complete destruction, 0 = no damage. The source says: (§1) It was possible to show the herbicidal action of the saccharin-5-carbonyl derivatives of the formula I by means of greenhouse tests: The cultivation containers used were plastic pots containing loamy sand with approximately 3.0% humus as a substrate. The seeds of the test plants were sown separately according to species. In the case of preemergence treatment, the active compounds suspended or emulsified in water were applied directly after sowing by means of finely dispersing nozzles. The containers were lightly watered in order to promote germination and growth, and then covered with transparent plastic hoods until the plants had taken root. This covering causes uniform germination of the test plants if this is not adversely affected by the active compounds. The application rate for preemergence treatment was 0.125 or 0.0625 kg/ha of a.s. The plants were kept species-specifically at temperatures of 10-25° C. or 20-35° C. The test period extended over 2 to 4 weeks. During this time, the plants were tended, and their reaction to the individual treatments was assessed. Assessment was carried out on a scale from 0 to 100. In this case, 100 means no emergence of the plants or complete destruction at least of the above-ground parts and 0 means no damage or a normal course of growth. The plants used in the greenhouse tests were made up of the following species: [table]

Assay [2] relates to digitaria sanguinalis (DIGSA). The experiment in a line: greenhouse test, preemergence treatment, large crabgrass. The following applies: 100 = no emergence or complete destruction, 0 = no damage.
Excerpt: as §1

Assay [3] has as its system Chenopodium album (CHEAL). The experiment in a line: greenhouse test, preemergence treatment, lambsquarter. The following applies: 100 = no emergence or complete destruction, 0 = no damage.
Excerpt: as §1

For a further assay, the system named is Setaria viridis (SETVI). The experiment in a line: greenhouse test, preemergence treatment, green foxtail. The following applies: 100 = no emergence or complete destruction, 0 = no damage.
Excerpt: as §1

The next assay relates to Glycine max (GLXMA). The experiment in a line: greenhouse test, preemergence treatment, soybean. The following applies: 100 = no emergence or complete destruction, 0 = no damage.
Excerpt: as §1

The test system of assay [4] is weed grasses and broad-leaved plants. The experiment in a line: greenhouse test, preemergence treatment, overall statement. The note with it: 0.125 and 0.0625 kg/ha a.s.
Excerpt: as §1, with “[table]” left out

In the case of `Cc1c(C(=O)C2=C(O)C3CCC(C3)C2=O)ccc2c1C(=O)N(C)S2(=O)=O` (centres unmarked) [Compound 1.1], the “damage assessment on a scale from 0 to 100 (ECHCG)” value in assay [1] (0.0625 kg/ha of a.s.) and in assay [1] (0.125 kg/ha of a.s.) was 98 throughout. In addition, the “damage assessment on a scale from 0 to 100 (DIGSA)” value in assay [2] (0.0625 kg/ha of a.s.) and in assay [2] (0.125 kg/ha of a.s.) was 98 each time. The “damage assessment on a scale from 0 to 100 (CHEAL)” value in assay [3] (0.0625 kg/ha of a.s.) and in assay [3] (0.125 kg/ha of a.s.) was 98 throughout. In addition, the “damage assessment on a scale from 0 to 100 (SETVI)” value with Setaria viridis (SETVI) (0.0625 kg/ha of a.s.) is 98; in the assay on Setaria viridis (SETVI) (0.125 kg/ha of a.s.) it was 100. Moreover, the “damage assessment on a scale from 0 to 100 (GLXMA)” value with Glycine max (GLXMA) (0.0625 kg/ha of a.s.) and in the assay with Glycine max (GLXMA) (0.125 kg/ha of a.s.) was 0 in each case. Further, the “control of weed grasses and broad-leaved plants” value in assay [4] is given as “very well controlled”.
